ChEMBL document CHEMBL1149728, “11-oxoaerothionin: a cytotoxic antitumor bromotyrosine-derived alkaloid from the Caribbean marine sponge Aplysina lacunosa” (J Nat Prod, 1992)
In brackets after ≈: the same amount, converted by molar mass.

Assays:
[1] = test system: MCF7; experiment: Cytotoxicity against human MCF7 cells; format: functional, cell-based
[2] = test system: SK-MEL-5; experiment: Cytotoxicity against human SK-MEL-5 cells; format: functional, cell-based
[3] = test system: Staphylococcus aureus; experiment: Antimicrobial activity against Staphylococcus aureus; format: functional
[4] = test system: HCT-116; experiment: Cytotoxicity against human HCT116 cells; format: functional, cell-based
[5] = test system: Pseudomonas aeruginosa; experiment: Antimicrobial activity against Pseudomonas aeruginosa; format: functional
[6] = test system: CCRF-CEM; experiment: Cytotoxicity against human CCRF-CEM cells; format: functional, cell-based
[7] = test system: Escherichia coli; experiment: Antimicrobial activity against Escherichia coli; format: functional

COC1=C(Br)[C@@H](O)[C@]2(C=C1Br)CC(C(=O)NCCC(=O)CNC(=O)C1=NO[C@]3(C=C(Br)C(OC)=C(Br)[C@@H]3O)C1)=NO2
IC50 [1]: 20 µg/mL (≈ 24 µM) | IC50 [2]: 10 µg/mL (≈ 12 µM) | MIC [3]: 30 µg/mL (≈ 36.1 µM) | IC50 [4]: 10 µg/mL (≈ 12 µM) | MIC [5]: 30 µg/mL (≈ 36.1 µM) | IC50 [6]: 3.5 µg/mL (≈ 4.21 µM) | MIC [7]: 10 µg/mL (≈ 12 µM)
